Reference: ChEMBL document CHEMBL5512685, “Discovery of a Promising CBP/p300 Degrader XYD129 for the Treatment of Acute Myeloid Leukemia” (J Med Chem, 2024)
Blank lines part the entries; values can stand above or below the compound they belong to.

Columns and labels:
CREB-binding protein = CREB-binding protein (Homo sapiens, UniProt Q92793); assay: Inhibition of C-terminal biotinylated tetra-acetylated histone peptide H4 binding to His6-fused human CBP bromodomain (R1081 to G1197 residues) incubated for 1 hrs by HTRF assay
Protein cereblon = Protein cereblon (Homo sapiens, UniProt Q96SW2); assay: Inhibition of biotinylated thalidomide binding to CRBN (40 to 442 residues) (unknown origin) incubated for 1 hrs by HTRF assay
[1] = biological target: Histone acetyltransferase p300 (Homo sapiens, UniProt Q09472); assay: Inhibition of C-terminal biotinylated tetra-acetylated histone peptide H4 binding to His6-fused human p300 bromodomain (A1040 to G1161 residues) incubated for 1 hrs by HTRF assay
MV4-11 [2] = assay: Antiproliferative activity against human MV4-11 cells assessed as inhibition of cell growth incubated for 120 hrs by celltiter glo luminescence analysis; format: functional, cell-based; conditions: MV4-11, 120 h
MV4-11 [3] = assay: Potency index, ratio of Y08207 IC50 to test compound IC50 for antiproliferative activity against human MV4-11 cells assessed as inhibition of cell growth incubated for 120 hrs by celltiter glo luminescence analysis; format: functional
KG-1 = assay: Antiproliferative activity against human KG-1 cells assessed as inhibition of cell growth incubated for 72 hrs by celltiter glo luminescence analysis; format: functional, cell-based; conditions: KG-1, 72 h
[4] = Antiproliferative activity against human MOLM16 cells assessed as inhibition of cell growth incubated for 72 hrs by celltiter glo luminescence analysis; format: functional, cell-based, MOLM-16; conditions: MOLM16, 72 h
[5] = Cytotoxicity against human HL7702 cells assessed as inhibition of cell growth incubated for 72 hrs by celltiter glo luminescence analysis; format: toxicity, cell-based; conditions: HL7702 (L02) cells
[6] = biological target: T1, Protein cereblon/CREB-binding protein (Homo sapiens) (UniProt Q92793+Q96SW2); assay: PROTAC activity at CRBN/CBP in human MOLM16 cells assessed as induction of CBP degradation incubated for 24 hrs by Western blot analysis; format: cell-based; conditions: dose 0-1000 nM
[7] = biological target: T2, Protein cereblon/Histone acetyltransferase p300 (Homo sapiens) (UniProt Q09472+Q96SW2); assay: PROTAC activity at CRBN/p300 in human MOLM16 cells assessed as induction of p300 degradation incubated for 24 hrs by Western blot analysis; format: cell-based; conditions: dose 0-1000 nM
[8] = biological target: T1, Protein cereblon/CREB-binding protein (Homo sapiens); assay: PROTAC activity at CRBN/CBP in human MOLM16 cells assessed as induction of CBP degradation at 1000 nM incubated for 24 hrs by Western blot analysis relative to control; format: cell-based
[9] = biological target: T2, Protein cereblon/Histone acetyltransferase p300 (Homo sapiens); assay: PROTAC activity at CRBN/p300 in human MOLM16 cells assessed as induction of p300 degradation at 1000 nM incubated for 24 hrs by Western blot analysis relative to control; format: cell-based

Compound: CC(=O)c1cc(C(=O)Nc2cc(CO)cc(-c3cnn(C)c3)c2F)c2cc(OCCCCC(=O)NCCCc3cccc4c3C(=O)N(C3CCC(=O)NC3=O)C4=O)ccn12 (stereo not drawn)
IC50 (CREB-binding protein): 0.02 µM
IC50 (Protein cereblon): 0.47 µM
IC50 [1]: 0.022 µM
IC50 (MV4-11 [2]): 0.75 µM
Ratio IC50 (MV4-11 [3]): ~8

Compound: CC(=O)c1cc(C(=O)Nc2cc(CO)cc(-c3cnn(C)c3)c2F)c2cc(O)ccn12
IC50 (CREB-binding protein): 0.006 µM
IC50 (Protein cereblon): > 100 µM
IC50 (KG-1): 11.6 µM
IC50 [4]: 13.5 µM
IC50 [1]: 0.007 µM
IC50 at 72 h [5]: 38.3 µM
IC50 (MV4-11 [2]): 6.37 µM

Compound: CC(=O)c1cc(C(=O)Nc2cc(CO)cc(-c3cnn(C)c3)c2F)c2cc(OCCCC(=O)NCCCc3cccc4c3C(=O)N(C3CCC(=O)NC3=O)C4=O)ccn12 (stereo not drawn)
IC50 (MV4-11 [2]): 1.48 µM

Compound: CC(=O)c1cc(C(=O)Nc2cc(CO)cc(-c3cnn(C)c3)c2F)c2cc(OCC(=O)NCCCc3cccc4c3C(=O)N(C3CCC(=O)NC3=O)C4=O)ccn12 (stereo not drawn)
IC50 (MV4-11 [2]): 7.51 µM

Compound: CC(=O)c1cc(C(=O)Nc2cc(CO)cc(-c3cnn(C)c3)c2F)c2cc(OCCCC(=O)NCCCCCCNc3cccc4c3C(=O)N(C3CCC(=O)NC3=O)C4=O)ccn12 (stereo not drawn)
IC50 (MV4-11 [2]): > 20 µM

Compound: CC(=O)c1cc(C(=O)Nc2cc(CO)cc(-c3cnn(C)c3)c2F)c2cc(OCCCC(=O)NCCNc3ccc4c(c3)C(=O)N(C3CCC(=O)NC3=O)C4=O)ccn12 (stereo not drawn)
IC50 (MV4-11 [2]): 17.8 µM

Compound: CC(=O)c1cc(C(=O)Nc2cc(CO)cc(-c3cnn(C)c3)c2F)c2cc(OCCCCCC(=O)NCC#Cc3cccc4c3C(=O)N(C3CCC(=O)NC3=O)C4=O)ccn12 (stereo not drawn)
IC50 (MV4-11 [2]): 13 µM

Compound: CC(=O)c1cc(C(=O)Nc2cc(CO)cc(-c3cnn(C)c3)c2F)c2cc(OCCCC(=O)NCCNc3cccc4c3C(=O)N(C3CCC(=O)NC3=O)C4=O)ccn12 (stereo not drawn)
IC50 (CREB-binding protein): 0.073 µM
IC50 (Protein cereblon): 1.1 µM
Activity [6]: Dose-Dependent Effect
IC50 (KG-1): 3.95 µM
IC50 [4]: 0.021 µM
IC50 [1]: 0.077 µM
IC50 at 72 h [5]: > 100 µM
Activity [7]: Dose-Dependent Effect
Activity [8]: 100%
IC50 (MV4-11 [2]): 0.42 µM
Activity [9]: 100%

Compound: CC(=O)c1cc(C(=O)Nc2cc(CO)cc(-c3cnn(C)c3)c2F)c2cc(OCCCCCCCC(=O)NCCCc3cccc4c3C(=O)N(C3CCC(=O)NC3=O)C4=O)ccn12 (stereo not drawn)
IC50 (MV4-11 [2]): 1.25 µM

Compound: CC(=O)c1cc(C(=O)Nc2cc(CO)cc(-c3cnn(C)c3)c2F)c2cc(OC3CCN(C(=O)CCOCCOCCNc4cccc5c4C(=O)N(C4CCC(=O)NC4=O)C5=O)CC3)ccn12 (stereo not drawn)
IC50 (MV4-11 [2]): 11.1 µM

Compound: CC(=O)c1cc(C(=O)Nc2cc(CO)cc(-c3cnn(C)c3)c2F)c2cc(OCCCC(=O)NCCCCNc3cccc4c3C(=O)N(C3CCC(=O)NC3=O)C4=O)ccn12 (stereo not drawn)
IC50 (MV4-11 [2]): > 20 µM

Compound: CC(=O)c1cc(C(=O)Nc2cc(CO)cc(-c3cnn(C)c3)c2F)c2cc(OCCCC(=O)NCCCCCCCCNc3cccc4c3C(=O)N(C3CCC(=O)NC3=O)C4=O)ccn12 (stereo not drawn)
IC50 (MV4-11 [2]): > 20 µM

Compound: CC(=O)c1cc(C(=O)Nc2cc(CO)cc(-c3cnn(C)c3)c2F)c2cc(OC3CCN(C(=O)CCOCCNc4cccc5c4C(=O)N(C4CCC(=O)NC4=O)C5=O)CC3)ccn12 (stereo not drawn)
IC50 (MV4-11 [2]): 8.03 µM

The next lines start with results.

IC50 (MV4-11 [2]): 23.2 µM
Compound: CC(=O)c1cc(C(=O)Nc2cc(CO)cc(-c3cnn(C)c3)c2F)c2cc(OCCCC(=O)NCC#Cc3cccc4c3C(=O)N(C3CCC(=O)NC3=O)C4=O)ccn12 (stereo not drawn)

IC50 (CREB-binding protein): 0.036 µM
IC50 (Protein cereblon): 7 µM
IC50 [1]: 0.051 µM
IC50 (MV4-11 [2]): 1.03 µM
Compound: CC(=O)c1cc(C(=O)Nc2cc(CO)cc(-c3cnn(C)c3)c2F)c2cc(OCCCCCCC(=O)NCCCc3cccc4c3C(=O)N(C3CCC(=O)NC3=O)C4=O)ccn12 (stereo not drawn)

IC50 (MV4-11 [2]): 3.93 µM
Compound: CC(=O)c1cc(C(=O)Nc2cc(CO)cc(-c3cnn(C)c3)c2F)c2cc(OCCCCCCC(=O)NCC#Cc3cccc4c3C(=O)N(C3CCC(=O)NC3=O)C4=O)ccn12 (stereo not drawn)
Ratio IC50 (MV4-11 [3]): ~2

IC50 (MV4-11 [2]): > 20 µM
Compound: CC(=O)c1cc(C(=O)Nc2cc(CO)cc(-c3cnn(C)c3)c2F)c2cc(OCC(=O)NCCNc3cccc4c3C(=O)N(C3CCC(=O)NC3=O)C4=O)ccn12 (stereo not drawn)

IC50 (MV4-11 [2]): 23 µM
Compound: CC(=O)c1cc(C(=O)Nc2cc(CO)cc(-c3cnn(C)c3)c2F)c2cc(OCC(=O)NCC#Cc3cccc4c3C(=O)N(C3CCC(=O)NC3=O)C4=O)ccn12 (stereo not drawn)

IC50 (MV4-11 [2]): 3.25 µM
Compound: CC(=O)c1cc(C(=O)Nc2cc(CO)cc(-c3cnn(C)c3)c2F)c2cc(OCCCCCCCC(=O)NCC#Cc3cccc4c3C(=O)N(C3CCC(=O)NC3=O)C4=O)ccn12 (stereo not drawn)
Ratio IC50 (MV4-11 [3]): ~2

IC50 (MV4-11 [2]): 4.89 µM
Compound: CC(=O)c1cc(C(=O)Nc2cc(CO)cc(-c3cnn(C)c3)c2F)c2cc(OC3CCN(C(=O)CCOCCOCCOCCOCCNc4cccc5c4C(=O)N(C4CCC(=O)NC4=O)C5=O)CC3)ccn12 (stereo not drawn)

IC50 (Protein cereblon): > 100 µM
IC50 (MV4-11 [2]): 0.014 µM
Compound: CO[C@H]1CC[C@H](n2c([C@@H]3CCCC(=O)N3c3ccc(F)c(F)c3)nc3cc(-c4c(C)noc4C)ccc32)CC1 [INOBRODIB]
IC50 (KG-1): 17 µM
IC50 [4]: 0.37 µM
IC50 at 72 h [5]: 20 µM

IC50 (MV4-11 [2]): > 20 µM
Compound: CC(=O)c1cc(C(=O)Nc2cc(CO)cc(-c3cnn(C)c3)c2F)c2cc(OCC(=O)NCCCCNc3ccc4c(c3)C(=O)N(C3CCC(=O)NC3=O)C4=O)ccn12 (stereo not drawn)

IC50 (CREB-binding protein): 0.068 µM
IC50 (Protein cereblon): 0.79 µM
IC50 [1]: 0.046 µM
IC50 (MV4-11 [2]): 0.46 µM
Compound: CC(=O)c1cc(C(=O)Nc2cc(CO)cc(-c3cnn(C)c3)c2F)c2cc(OCCCCCC(=O)NCCCc3cccc4c3C(=O)N(C3CCC(=O)NC3=O)C4=O)ccn12 (stereo not drawn)
IC50 (KG-1): 4.77 µM
IC50 [4]: 0.054 µM
IC50 at 72 h [5]: > 100 µM
Ratio IC50 (MV4-11 [3]): ~8

IC50 (MV4-11 [2]): 1.06 µM
Compound: CC(=O)c1cc(C(=O)Nc2cc(CO)cc(-c3cnn(C)c3)c2F)c2cc(OCC(=O)NCCCNc3cccc4c3C(=O)N(C3CCC(=O)NC3=O)C4=O)ccn12 (stereo not drawn)
Ratio IC50 (MV4-11 [3]): 6

IC50 (MV4-11 [2]): 21.2 µM
Compound: CC(=O)c1cc(C(=O)Nc2cc(CO)cc(-c3cnn(C)c3)c2F)c2cc(OCCCCC(=O)NCC#Cc3cccc4c3C(=O)N(C3CCC(=O)NC3=O)C4=O)ccn12 (stereo not drawn)

IC50 (MV4-11 [2]): 5.39 µM
Compound: CC(=O)c1cc(C(=O)Nc2cc(CO)cc(-c3cnn(C)c3)c2F)c2cc(OC3CCN(C(=O)CCOCCOCCOCCNc4cccc5c4C(=O)N(C4CCC(=O)NC4=O)C5=O)CC3)ccn12 (stereo not drawn)
